Laboratory results taken from US20050196385A1, “Methods for producing gamma delta t cells” (Innate Pharama, priority 2002, published 2005).

Tested on: gamma 9 delta 2 T cells
Assay: TNF release test after BrHPP stimulation
Assay type: cell-based, human
Details: for TNF alpha production (pg/ml) on 25,000 cells: 3 μM BrHPP, 24 hours, day 21; for Pg/ml of alpha TNF produced by 25 000 cells: cells formulated in HSA 4%, triplicate means
Experimental: Different tests were carried out on the cells obtained to evaluate their functional activity. In particular, said tests concerned the cytotoxic activity of the cells and their production of TNF. • Cytotoxicity test. For this test, the target cells were isotopically labelled with ^51Cr (10 μl of ^51Cr/1 million target cells in 24-well plates), then incubated for 1 hour at 37° C. The cells were distributed (in duplicate) at a rate of 3000 cells per well in RPMI/10% FCS (50 μl), and spontaneous and maximum release of ^51Cr were determined. Effector cells (gamma delta T cells of the invention) were then added (50 μl in RPMI/10% FCS) to each target, at the following effector/target (E/T) ratios: 30/1, 3/1, 0.3/1, and incubated for 3 to 4 hours at 37° C. Cytotoxic activity (lysis of target cells) was determined by measuring the released radioactivity on 25 μl of supernatant in a β plate counter. • TNF release test. Cells were washed twice in RPMI then cultured in 96-well plates in RPMI/10% FCS in the presence of 3 μM BrHPP for 24 hours. TNF was assayed in the supernatant using the Beckman Coulter Kit Immunotech, ref. IM 11121. IC—Results Choice of Medium
The formulated cell product was tested for functionality by the TNF release test at different time points to evaluate its stability.

SMILES: CC(O)(CBr)CCOP(=O)(O)OP(=O)(O)O (stereo not shown) [BrHPP, 3-(bromomethyl)-3-butanol-1-yl-diphosphate]
- TNF alpha production (pg/ml) on 25,000 cells (cells of donor D623 from fresh MNC): 1332.7 pg/mL
- TNF alpha production (pg/ml) on 25,000 cells (cells of donor D623 from frozen MNC): 1442.36 pg/mL
- TNF alpha production (pg/ml) on 25,000 cells (cells of donor D711 from fresh MNC): 903.3 pg/mL
- TNF alpha production (pg/ml) on 25,000 cells (cells of donor D711 from frozen MNC): 1336.16 pg/mL
- TNF alpha production (pg/ml) on 25,000 cells (cells of donor D762 from fresh MNC): 782.08 pg/mL
- TNF alpha production (pg/ml) on 25,000 cells (cells of donor D762 from frozen MNC): 973.7 pg/mL
- Pg/ml of alpha TNF produced by 25 000 cells (T = 2 h after formulation): 381.358 pg/mL
- Pg/ml of alpha TNF produced by 25 000 cells (T = 4 h after formulation): 359.624 pg/mL
- Pg/ml of alpha TNF produced by 25 000 cells (T = 8 h after formulation): 327.31 pg/mL
- Pg/ml of alpha TNF produced by 25 000 cells (T = 22 h after formulation): 127.56 pg/mL
